Measured values reported in patent US3957779A, “Benzo-1,2,4-triazines” (Bayer Aktiengesellschaft, priority 1972, dated 1976).
≈ marks a conversion by molar mass, not a printed value.

Tests used:
Format in all cases: cell-based
Mycoplasma gallisepticum = assay: MIC, series dilution test, PPLO-medium (Table 1); details: Mycoplasmoides gallisepticum, 37°C, 18, 24 and 48 hours, read-out: Minimum inhibitory concentration (MIC)
Description: (§1) The mycoplasmae were tested in the series dilution test (PPLO-medium) at 37°C, with observations after 18, 24 and 48 hours.

Mycoplasma bovirhinis = assay: MIC, series dilution test, PPLO-medium (Table 1); details: 37°C, 18, 24 and 48 hours, read-out: Minimum inhibitory concentration (MIC)
Description: as §1

Mycoplasma granularum = assay: MIC, series dilution test, PPLO-medium (Table 1); details: Acholeplasma granularum, 37°C, 18, 24 and 48 hours, read-out: Minimum inhibitory concentration (MIC)
Description: as §1

Streptococcus pyogenes = assay: MIC, plate test (Table 1); details: with serum, 37°C, 24 hours, read-out: Minimum inhibitory concentration (MIC)
Description: (§2) The minimum inhibitory concentration (MIC) was determined in the plate test on a complete nutrient base of the following composition: 10 g of proteose-peptone, 10 g of veal infusion, 2 g of dextrose, 3 g of sodium chloride, 2 g of disodium phosphate, 1 g of sodium acetate, 0.01 g of adenine sulphate, 0.01 g of guanine hydrochloride, 0.01 g of uracil, 0.01 g. of xantin, 12 g of agar-agar and 1 liter of water.
(§3) The incubation temperature was 37°C and the incubation time was 24 hours.

Escherichia coli C165 = assay: MIC, plate test (Table 1); details: 37°C, 24 hours, read-out: Minimum inhibitory concentration (MIC)
Description: as §2, §3

Salmonella species = assay: MIC, plate test (Table 1); details: 37°C, 24 hours, read-out: Minimum inhibitory concentration (MIC)
Description: as §2, §3

Klebsiella 63 = assay: MIC, plate test (Table 1); details: 37°C, 24 hours, read-out: Minimum inhibitory concentration (MIC)
Description: as §2, §3

Pseudomonas aeruginosa B = assay: MIC, plate test (Table 1); details: 37°C, 24 hours, read-out: Minimum inhibitory concentration (MIC)
Description: as §2, §3

Proteus vulgaris 1017 = assay: MIC, plate test (Table 1); details: 37°C, 24 hours, read-out: Minimum inhibitory concentration (MIC)
Description: as §2, §3

[1] = test system: Staphylococcus aureus 133; assay: MIC, plate test (Table 1); details: 37°C, 24 hours, read-out: Minimum inhibitory concentration (MIC)
Description: as §2, §3

Pseudomonas aeruginosa w = assay: MIC, plate test (Table 1); details: 37°C, 24 hours, read-out: Minimum inhibitory concentration (MIC)
Description: as §2, §3

Escherichia coli A261 = assay: MIC, plate test (Table 1); details: 37°C, 24 hours, read-out: Minimum inhibitory concentration (MIC)
Description: as §2, §3

Klebsiella 8085 = assay: MIC, plate test (Table 1); details: 37°C, 24 hours, read-out: Minimum inhibitory concentration (MIC)
Description: as §2, §3

[2] = test system: Mycobacterium tuberculosis; assay: MIC, series dilution test, Jenssen egg medium; details: 37°C, read-out: minimum inhibitory concentration
Description: The compounds of Examples 12 and 13 show minimum inhibitory concentrations of 32 γ/ml of nutrient medium in the series dilution test, Jenssen egg medium, 37°C, against Mycobacterium tuberculosis.

SMILES | MIC (Mycoplasma gallisepticum) [µg/mL] | MIC (Mycoplasma bovirhinis) [µg/mL] | MIC (Mycoplasma granularum) [µg/mL] | MIC (Streptococcus pyogenes) [µg/mL] | MIC (Escherichia coli C165) [µg/mL] | MIC (Salmonella species) [µg/mL] | MIC (Klebsiella 63) [µg/mL] | MIC (Pseudomonas aeruginosa B) [µg/mL] | MIC (Proteus vulgaris 1017) [µg/mL] | MIC [1] [µg/mL] | MIC (Pseudomonas aeruginosa w) [µg/mL] | MIC (Escherichia coli A261) [µg/mL] | MIC (Klebsiella 8085) [µg/mL] | MIC [2] [µg/mL]
CC(=O)Nc1n[n+]([O-])c2ccccc2[n+]1[O-] [Example 2, 3-(N-acetylamino)-benzo-1,2,4-triazine-1,4-di-N-oxide] | < 0.125 | < 0.125 | < 0.125 | 1 (≈ 4.54 µM) | < 0.5 | 1 (≈ 4.54 µM) | < 0.5 | 4 (≈ 18.2 µM) | < 0.5 | < 0.5 | 8 (≈ 36.3 µM) | < 0.5 | < 0.5 | 
CCC(=O)Nc1n[n+]([O-])c2ccccc2[n+]1[O-] [Example 3, 3-(N-propionylamino)-benzo-1,2,4-triazine-1,4-di-N-oxide] | < 0.125 | < 0.125 | < 0.125 | 128 (≈ 547 µM) | 4 (≈ 17.1 µM) | 4 (≈ 17.1 µM) | 4 (≈ 17.1 µM) | 128 (≈ 547 µM) | 1 (≈ 4.27 µM) | 1 (≈ 4.27 µM) | 128 (≈ 547 µM) | 4 (≈ 17.1 µM) | 1 (≈ 4.27 µM) | 
CC(=O)CC(=O)Nc1n[n+]([O-])c2ccccc2[n+]1[O-] [Example 4, 3-(N-acetoacetylamino)-benzo-1,2,4-triazine-1,4-di-N-oxide] |  |  |  | 8 (≈ 30.5 µM) | 8 (≈ 30.5 µM) | 8 (≈ 30.5 µM) | 128 (≈ 488 µM) | 128 (≈ 488 µM) | 8 (≈ 30.5 µM) | 8 (≈ 30.5 µM) | 128 (≈ 488 µM) | 8 (≈ 30.5 µM) | 4 (≈ 15.3 µM) | 32 (≈ 122 µM)
